From publication PMC8482815, “Targeting Host Glycolysis as a Strategy for Antimalarial Development” (Frontiers in Cellular and Infection Microbiology, 2021)
“And” between values parts separate entries of the source, which are not always exact repeats. Equal entries are not always repeated.

System: human erythrocytes
Assay: Untargeted metabolomics and 13C-glucose tracing of enolase inhibitor treated erythrocytes
Type: cell-based
Conditions: 0h
Experimental: Freshly collected erythrocytes were washed, resuspended to 10% hematocrit in buffer [25mM HEPES (pH 7.4), 120mM NaCl, 5.4mM KCl, 1.8mM CaCl2, and 1mM NaH2PO4], incubated for 1 hour at 37°C, then centrifuged at 2000xg for 5 minutes at 4°C, resuspended in fresh wash buffer to 30-40% hematocrit, and split into 210µL aliquots of packed erythrocytes. […] All samples were incubated at 37°C shaking at 500 RPM. Triplicate samples of supernatants and packed erythrocytes were collected at 0, 0.5, 1, and 6-hour intervals and snap-frozen in liquid N2.
RBC and media samples were extracted at 1:10 and 1:20 dilutions, respectively, in 5:3:2 MeOH : MeCN:H2O v/v/v, and supernatants analyzed on a Thermo Vanquish UHPLC coupled to a Thermo Q Exactive mass spectrometer, as extensively described ([Nemkov et al., 2015]; [Nemkov et al., 2017]). The extraction buffer was supplemented with 40uM 3-^13C lactate to allow absolute quantification of lactate isotopologues, including lactate generated via glycolysis ([1,2,3-^13C3] enriched) vs. the pentose phosphate pathway ([2,3-^13C2] enriched), as described ([Reisz et al., 2016]). Metabolite assignments, peak area integration and isotopologues distributions were determined using Maven (Princeton University) ([Nemkov et al., 2015]; [Nemkov et al., 2017]).
Data were auto-scaled and normalized to zero-hour time points. Metabolites were removed from the dataset if greater than 50% of the samples contained missing values or the relative standard deviation among replicates exceeded 25%. Additionally, data was filtered using the interquartile range to reduce near-constant values from the experiment by 5%.
A principal component analysis of preprocessed data was plotted with the 95% confidence interval minimum volume enclosing ellipsoid for each respective group (MetaboAnalyst, cluster, plotly). A two-way repeated measures analysis of variance (ANOVA) was performed with multiple comparisons corrected for using a false discovery rate p-value cutoff of 0.05. Metabolite-Pathway analysis was performed using the R package of MetaboAnalyst, as previously described ([Xia and Wishart, 2010]). Metabolite-Protein nodal analysis was performed using omicsnet.ca and as previously described ([Zhou and Xia, 2018]).

[1] = treated erythrocytes, one value per replicate sample, polarity +
[2] = treated erythrocytes, one value per replicate sample, polarity -
[3] = treated erythrocytes, replicate samples

CC(C)(C)C(=O)OCOP(=O)(OCOC(=O)C(C)(C)C)C1CCCN(O)C1=O (stereo not shown) [POMHEX]
AMP level (metabolomics signal) (replicate samples): 2.43E+06 and 4.08E+06 and 2.38E+06 | ATP level (metabolomics signal) (replicate samples): 7.62E+03 and 7.58E+03 and 9.00E+03 | Adenine level (metabolomics signal) (replicate samples): 1.31E+05 and 1.38E+05 and 1.32E+05 | Cytosine level (metabolomics signal) (replicate samples): 8.55E+04 and 2.38E+05 and 4.74E+05 | L-alanine level (metabolomics signal) (replicate samples): 7.28E+06 and 6.97E+06 and 9.28E+06 | L-arginine level (metabolomics signal) (replicate samples): 7.34E+06 and 1.51E+07 and 4.28E+06 | L-asparagine level (metabolomics signal) (replicate samples): 3.07E+06 and 3.14E+06 and 2.95E+06 | L-aspartate level (metabolomics signal) (replicate samples): 3.52E+07 and 3.22E+07 and 3.54E+07 | L-cysteine level (metabolomics signal) (replicate samples): 4.11E+05 and 4.42E+05 and 1.93E+05 | L-glutamate level (metabolomics signal) (replicate samples): 3.91E+07 and 3.64E+07 and 4.16E+07 | L-glutamine level (metabolomics signal) (replicate samples): 3.51E+07 and 3.65E+07 and 2.77E+07 | L-histidine level (metabolomics signal) (replicate samples): 1.77E+06 and 1.86E+06 and 1.64E+06 | L-isoleucine level (metabolomics signal) (replicate samples): 0.00E+00 and 2.79E+07 and 2.01E+07 | L-leucine level (metabolomics signal) (replicate samples): 1.13E+08 and 1.29E+08 and 1.02E+08 | L-lysine level (metabolomics signal) (replicate samples): 3.76E+06 and 3.91E+06 and 3.34E+06 | L-methionine level (metabolomics signal) (replicate samples): 1.20E+07 and 1.28E+07 and 9.77E+06 | L-phenylalanine level (metabolomics signal) (replicate samples): 3.89E+06 and 5.35E+06 and 4.43E+06 | L-proline level (metabolomics signal) (replicate samples): 3.87E+07 and 4.04E+07 and 2.78E+07 | L-serine level (metabolomics signal) (replicate samples): 2.27E+06 and 2.30E+06 and 2.07E+06 | L-threonine level (metabolomics signal) (replicate samples): 3.34E+06 and 3.50E+06 and 3.23E+06 | L-tryptophan level (metabolomics signal) (replicate samples): 4.61E+06 and 3.92E+06 and 4.51E+06 | L-tyrosine level (metabolomics signal) (replicate samples): 1.31E+07 and 1.44E+07 and 1.06E+07 | L-valine level (metabolomics signal) (replicate samples): 1.25E+08 and 1.20E+08 and 1.19E+08 | dCMP level (metabolomics signal) (replicate samples): 2.66E+04 and 2.57E+04 and 1.91E+04 | dTMP level (metabolomics signal) (replicate samples): 1.47E+06 and 1.26E+06 and 9.65E+05 | glycine level (metabolomics signal) (replicate samples): 1.29E+06 and 1.21E+06 and 1.30E+06 | N-Acyl-D-aspartate (C06380) metabolite signal [1]: 2.82E+05 and 3.24E+05 and 2.89E+05 | Poly-gamma-D-glutamate (C05723) metabolite signal [1]: 2.28E+07 and 2.38E+07 and 1.86E+07 | D-Ribitol 5-phosphate (C01068) metabolite signal [2]: 1.18E+04 and 2.78E+04 and 2.55E+04 | D-glucono-1,5-lactone (C00198) metabolite signal [2]: 7.35E+05 and 6.39E+05 and 6.34E+05 | L-Noradrenaline (C00547) metabolite signal [2]: 2.10E+05 and 2.67E+05 and 1.54E+05 | Oxalosuccinate (C05379) metabolite signal [2]: 1.80E+05 and 1.89E+05 and 1.75E+05 | Pyridoxamine (C00534) metabolite signal [2]: 3.47E+04 and 2.11E+04 and 4.13E+04 | Thioredoxin disulfide (C00343) metabolite signal [2]: 8.56E+04 and 8.74E+04 and 6.44E+04 | 1-4-beta-D-Xylan (metabolite signal) [3]: 2.75E+05 and 3.19E+05 and 2.60E+05 | 2-Hydroxyglutarate/Citramalate (C02630) metabolite signal [3]: 1.87E+05 and 1.44E+05 and 1.36E+05 | 5-6-Dihydrothymine (C00906) metabolite signal [3]: 3.37E+05 and 3.23E+05 and 2.70E+05 | 5-10-Methenyltetrahydrofolate (metabolite signal) [3]: 3.52E+05 and 3.49E+05 and 3.48E+05 | 5-Hydroxyisourate (C11821) metabolite signal [3]: 4.58E+06 and 4.14E+06 and 5.16E+06 | 5-L-Glutamyl-taurine (metabolite signal) [3]: 1.13E+05 and 1.05E+05 and 1.57E+05 | 5-Oxoproline (metabolite signal) [3]: 1.19E+06 and 1.09E+06 and 9.91E+05 | (S)(+)-Allantoin (C02350) metabolite signal [3]: 4.00E+04 and 4.50E+04 and 4.43E+04 | Allantoate (C00499) metabolite signal [3]: 3.63E+05 and 4.40E+05 and 2.26E+05 | Ascorbate (metabolite signal) [3]: 1.03E+05 and 1.39E+05 and 1.05E+05 | CMP-N-acetylneuraminate (metabolite signal) [3]: 3.22E+04 and 2.63E+04 and 3.17E+04 | Carnosine (metabolite signal) [3]: 2.22E+05 and 1.73E+05 and 2.52E+05 | Citrate (C00158) metabolite signal [3]: 2.73E+04 and 3.19E+04 and 2.59E+04 | Creatine (metabolite signal) [3]: 2.64E+08 and 2.63E+08 and 2.96E+08 | Creatinine (metabolite signal) [3]: 3.90E+06 and 3.59E+06 and 3.78E+06 | Cys-Gly (metabolite signal) [3]: 1.91E+06 and 2.03E+06 and 2.13E+06 | D-Glucosamine (metabolite signal) [3]: 6.56E+04 and 1.26E+05 and 1.11E+05 | D-Glucose (C00031) metabolite signal [3]: 7.03E+06 and 7.96E+06 and 6.07E+06 | D-Ribose (C00121) metabolite signal [3]: 2.42E+05 and 2.08E+05 and 2.00E+05 | Dehydroascorbate (metabolite signal) [3]: 6.66E+03 and 1.26E+04 and 9.16E+03 | Dihydrofolate (metabolite signal) [3]: 2.17E+06 and 2.08E+06 and 1.28E+06 | Dimethylglycine (metabolite signal) [3]: 1.13E+06 and 1.12E+06 and 1.22E+06 | Diphosphate (C00013) metabolite signal [3]: 2.29E+03 and 2.81E+03 and 1.30E+03 | Fumarate (C00122) metabolite signal [3]: 1.70E+05 and 1.53E+05 and 1.29E+05 | Glutathione (C00051) metabolite signal [3]: 1.29E+08 and 1.42E+08 and 1.45E+08 | Glutathione disulfide (metabolite signal) [3]: 4.07E+05 and 2.99E+05 and 3.44E+05 | Hypoxanthine (C00262) metabolite signal [3]: 1.23E+05 and 8.50E+04 and 1.07E+05 | IMP (C00130) metabolite signal [3]: 2.07E+04 and 4.13E+04 and 2.42E+04 | Inosine (C00294) metabolite signal [3]: 1.23E+05 and 1.19E+05 and 1.09E+05 | L-Citrulline (metabolite signal) [3]: 2.18E+06 and 2.13E+06 and 2.77E+06 | L-Homoserine (metabolite signal) [3]: 1.85E+05 and 2.19E+05 and 1.31E+05 | Lactate (C01432) metabolite signal [3]: 7.44E+06 and 7.84E+06 and 7.12E+06 | Malate (C00149) metabolite signal [3]: 4.07E+05 and 3.13E+05 and 3.03E+05 | Mannitol (C00392) metabolite signal [3]: 1.01E+05 and 1.11E+05 and 1.22E+05 | N-Acetylneuraminate (metabolite signal) [3]: 3.05E+04 and 3.27E+04 and 2.27E+04 | N-Glycoloyl-neuraminate (metabolite signal) [3]: 2.02E+05 and 2.52E+05 and 1.61E+05 | NAD+ (C00003) metabolite signal [3]: 3.20E+05 and 3.25E+05 and 4.11E+05 | Nicotinamide (C00153) metabolite signal [3]: 2.56E+07 and 2.61E+07 and 2.89E+07 | Ornithine (metabolite signal) [3]: 2.51E+06 and 2.56E+06 and 2.47E+06 | Oxaloacetate (C00036) metabolite signal [3]: 4.82E+04 and 5.32E+04 and 4.35E+04 | Phosphoserine (metabolite signal) [3]: 1.31E+05 and 1.59E+05 and 1.52E+05 | Putrescine (metabolite signal) [3]: 5.04E+04 and 6.26E+04 and 7.87E+04 | Pyridoxal (C00250) metabolite signal [3]: 5.06E+04 and 4.81E+04 and 5.68E+04 | Pyruvate (C00022) metabolite signal [3]: 8.21E+05 and 7.91E+05 and 7.06E+05 | S-Glutathionyl-L-cysteine (metabolite signal) [3]: 1.68E+05 and 1.57E+05 and 8.75E+04 | Sedoheptulose 1-phosphate (C06222) metabolite signal [3]: 4.53E+04 and 4.14E+04 and 2.92E+04 | Spermidine (metabolite signal) [3]: 9.43E+06 and 1.01E+07 and 9.63E+06 | Spermine (metabolite signal) [3]: 8.86E+06 and 9.58E+06 and 9.08E+06 | Succinate (C00042) metabolite signal [3]: 1.10E+05 and 1.06E+05 and 1.08E+05 | Thymidine (C00214) metabolite signal [3]: 1.93E+04 and 1.39E+04 and 1.28E+04 | UDP (C00015) metabolite signal [3]: 3.47E+05 and 4.31E+05 and 2.43E+05 | UDP-N-acetyl-D-glucosamine (metabolite signal) [3]: 2.77E+04 and 2.13E+04 (2×) | UDP-glucose (C00029) metabolite signal [3]: 8.05E+04 and 6.15E+04 and 6.31E+04 | Urate (C00366) metabolite signal [3]: 4.79E+04 and 4.62E+04 and 3.28E+04 | Xanthine (C00385) metabolite signal [3]: 3.87E+05 and 3.78E+05 and 3.91E+05 | alpha-D-Glucosamine 1-phosphate (metabolite signal) [3]: 1.72E+06 and 1.66E+06 and 2.32E+06 | alpha-D-Ribose 1-phosphate (C00620) metabolite signal [3]: 1.60E+05 and 1.43E+05 and 1.11E+05 | gamma-Glutamyl-gamma-aminobutyrate (metabolite signal) [3]: 8.08E+04 and 5.90E+04 and 1.10E+05 | gamma-L-Glutamyl-D-alanine (metabolite signal) [3]: 2.48E+04 and 2.19E+04 and 1.85E+04 | gamma-L-Glutamyl-L-cysteine (metabolite signal) [3]: 2.81E+04 and 3.64E+04 and 2.51E+04
